These results are taken from patent US11753407B2, “Compounds for treating spinal muscular atrophy” (PTC Therapeutics, Inc., priority 2012, dated 2023).

Series [1] deals with SMN2 minigene mRNA (SMN2-A minigene) in HEK293H cells. The series can be described thus: SMN2 minigene mRNA splicing RT-qPCR assay in cultured cells. Particulars: Homo sapiens, HEK293-H; concentration increasing full length SMN2 mRNA 1.5-fold relative to vehicle-treated cells; HEK293H cells with SMN2-A minigene, 24 hours, 7-point concentration data; read-out: EC1.5x for production of full length SMN2 mRNA. The series is classed as cell-based, human. The gist of the method:
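Potency reflects the concentration that lifts full-length SMN2 minigene mRNA 1.5-fold above vehicle in stably transfected HEK293H cells after 24 h of treatment. Transcript abundance came from RT-qPCR as (1+E)^−Ct, normalized to GAPDH; endogenous SMN1/SMN2 are not detected.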

For series [2], the system named is Smn protein in SMA patient fibroblast cells (GM03813). The series can be described thus: Smn protein assay in cultured cells (SMN HTRF). Particulars: SMA patient fibroblast cells, 48 hours; for maximum fold (Fold) increase of Smn protein: 7-point concentration data, fold relative to vehicle control; for EC1.5x for Smn protein expression: 7-point concentration curve, SMN HTRF, concentration producing 1.5 times Smn protein vs DMSO vehicle control. The series is classed as cell-based, human. The gist of the method:
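Smn protein abundance in treated SMA fibroblasts was measured by HTRF after 48 h compound exposure. The reported EC1.5× is the concentration producing 1.5 times vehicle Smn levels.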

For the compound `CCc1nc2ccc(-c3cc(=O)n4cc(N5CCN[C@@H](C)C5)ccc4n3)cc2o1` [Compound 266, 2-(2-ethyl-1,3-benzoxazol-6-yl)-7-[(3S)-3-methylpiperazin-1-yl]-4H-pyrido[1,2-a]pyrimidin-4-one], the melting point fell in the range of 168 to 170 °C. The EC (1.5-fold increase) in series [1] lay in the range of 1 to 3 µM. The “maximum fold (Fold) increase of Smn protein” value (shortened to “maximum fold (Fold) increase”) in series [2] was “** (a fold increase between >1.2 and ≤1.35 is indicated by two stars (**))”.
In turn, `Cc1nc2ccc(-c3cc(=O)n4cc(N5CCN6CCC[C@@H]6C5)ccc4n3)cc2o1` [Compound 198, 7-[(8aR)-hexahydropyrrolo[1,2-a]pyrazin-2(1H)-yl]-2-(2-methyl-1,3-benzoxazol-6-yl)-4H-pyrido[1,2-a]pyrimidin-4-one] displayed a melting point of 194 to 199 °C. Moreover, the EC (1.5-fold increase) in series [1] was under 0.1 µM. Also, in series [2], the “EC1.5x for Smn protein expression” value is given as “**** (an EC1.5x≤0.3 μM is indicated by four stars (****))”; the “maximum fold (Fold) increase” value is “**** (a fold increase between >1.5 and ≤1.65 is indicated by four stars (****))”.
`Cc1cc(-c2cc(=O)n3cc(N4CCNCC4)ccc3n2)cc2cn(C)nc12` [Compound 738, 2-(2,7-dimethyl-2H-indazol-5-yl)-7-(piperazin-1-yl)-4H-pyrido[1,2-a]pyrimidin-4-one] came in with a melting point of 194 to 196 °C. Besides, in series [1], the EC (1.5-fold increase) is under 0.1 µM. In addition, in series [2], the “EC1.5x for Smn protein expression” value was “**** (an EC1.5x≤0.3 μM is indicated by four stars (****))” and the “maximum fold (Fold) increase” value is reported as “***** (a fold increase >1.65 is indicated by five stars (*****))”.
In turn, `Cc1nc2ccc(-c3cc(=O)n4cc(N5CCNCC5)ccc4n3)cc2s1` [Compound 219, 2-(2-methyl-1,3-benzothiazol-6-yl)-7-(piperazin-1-yl)-4H-pyrido[1,2-a]pyrimidin-4-one] returned a melting point of 218 to 220 °C. Moreover, the EC (1.5-fold increase) in series [1] was under 0.1 µM. In series [2], the “EC1.5x for Smn protein expression” value is recorded as “**** (an EC1.5x≤0.3 μM is indicated by four stars (****))”; the “maximum fold (Fold) increase” value was “**** (a fold increase between >1.5 and ≤1.65 is indicated by four stars (****))”.
In turn, `COc1ccc(-c2cc(=O)n3cc(C4=CCN(C(C)C)CC4)cc(C)c3n2)cc1OC` [Compound 387, 2-(3,4-dimethoxyphenyl)-9-methyl-7-[1-(propan-2-yl)-1,2,3,6-tetrahydropyridin-4-yl]-4H-pyrido[1,2-a]pyrimidin-4-one] showed a melting point of 153 to 163 °C. Moreover, the EC (1.5-fold increase) in series [1] lay within 0.3 to 1 µM. Besides, the “maximum fold (Fold) increase” value in series [2] is “** (a fold increase between >1.2 and ≤1.35 is indicated by two stars (**))”.
The compound `Cc1nc2ccc(-c3cc(=O)n4cc(N5CCCN(C)CC5)ccc4n3)cc2o1` [Compound 196, 2-(2-methyl-1,3-benzoxazol-6-yl)-7-(4-methyl-1,4-diazepan-1-yl)-4H-pyrido[1,2-a]pyrimidin-4-one] registered a melting point of 146 to 150 °C. For the same compound, the EC (1.5-fold increase) in series [1] was under 0.1 µM. In addition, in series [2], the “EC1.5x for Smn protein expression” value is on record as “**** (an EC1.5x≤0.3 μM is indicated by four stars (****))”; the “maximum fold (Fold) increase” value was “**** (a fold increase between >1.5 and ≤1.65 is indicated by four stars (****))”.
Turning to `CCc1cc(-c2cc(=O)n3cc(N4CCN(CCO)[C@H](C)C4)ccc3n2)cn2cc(C)nc12` [Compound 649, 2-(8-ethyl-2-methylimidazo[1,2-a]pyridin-6-yl)-7-[(3R)-4-(2-hydroxyethyl)-3-methylpiperazin-1-yl]-4H-pyrido[1,2-a]pyrimidin-4-one], the melting point was in the range of 217 to 220 °C. Besides, the EC (1.5-fold increase) in series [1] is under 0.1 µM. Moreover, in series [2], the “EC1.5x for Smn protein expression” value is recorded as “**** (an EC1.5x≤0.3 μM is indicated by four stars (****))” and the “maximum fold (Fold) increase” value was “***** (a fold increase >1.65 is indicated by five stars (*****))”.
`CCN1CCN(c2ccc3nc(-c4cc(Cl)c5nc(C)cn5c4)cc(=O)n3c2)CC1` [Compound 494, 2-(8-chloro-2-methylimidazo[1,2-a]pyridin-6-yl)-7-(4-ethylpiperazin-1-yl)-4H-pyrido[1,2-a]pyrimidin-4-one]: the melting point lay within 264 to 268 °C. For the same compound, the EC (1.5-fold increase) in series [1] is under 0.1 µM. In addition, in series [2], the “EC1.5x for Smn protein expression” value is recorded as “**** (an EC1.5x≤0.3 μM is indicated by four stars (****))”; the “maximum fold (Fold) increase” value was “**** (a fold increase between >1.5 and ≤1.65 is indicated by four stars (****))”.
For `COc1ccc(-c2cc(=O)n3cc(C4=CCN(C5CCC5)CC4)ccc3n2)cc1OC` [Compound 362, 7-(1-cyclobutyl-1,2,3,6-tetrahydropyridin-4-yl)-2-(3,4-dimethoxyphenyl)-4H-pyrido[1,2-a]pyrimidin-4-one], the melting point fell in the range of 152 to 154 °C. Besides, in series [1], the EC (1.5-fold increase) was 0.3 to 1 µM. Besides, the “maximum fold (Fold) increase” value in series [2] is “*** (a fold increase between >1.35 and ≤1.5 is indicated by three stars (***))”.
The compound `CCCc1nc(C)cn2nc(-c3cc(=O)n4cc(C5CCNCC5)ccc4n3)cc12` [Compound 766, 2-(6-methyl-4-propylpyrazolo[1,5-a]pyrazin-2-yl)-7-(piperidin-4-yl)-4H-pyrido[1,2-a]pyrimidin-4-one] came in with a melting point of 228 to 230 °C. Further, the EC (1.5-fold increase) in series [1] was under 0.1 µM. In series [2], the “EC1.5x for Smn protein expression” value is reported as “**** (an EC1.5x≤0.3 μM is indicated by four stars (****))” and the “maximum fold (Fold) increase” value is on record as “***** (a fold increase >1.65 is indicated by five stars (*****))”.
Regarding `Cc1cn2nc(-c3cc(=O)n4cc(C5CCN(C)CC5)ncc4n3)cc2c(C)n1` [Compound 503, 2-(4,6-dimethylpyrazolo[1,5-a]pyrazin-2-yl)-7-(1-methylpiperidin-4-yl)-4H-pyrazino[1,2-a]pyrimidin-4-one], the melting point fell in the range of 257 to 259 °C. Further, in series [1], the EC (1.5-fold increase) is under 0.1 µM. Besides, in series [2], the “EC1.5x for Smn protein expression” value is given as “**** (an EC1.5x≤0.3 μM is indicated by four stars (****))” and the “maximum fold (Fold) increase” value was “***** (a fold increase >1.65 is indicated by five stars (*****))”.
Compound `CCc1nc(C)cn2nc(-c3cc(=O)n4cc(N5CCN(C6CC6)CC5)ccc4n3)cc12` [Compound 620, 7-(4-cyclopropylpiperazin-1-yl)-2-(4-ethyl-6-methylpyrazolo[1,5-a]pyrazin-2-yl)-4H-pyrido[1,2-a]pyrimidin-4-one] registered a melting point of 258 to 260 °C. The EC (1.5-fold increase) in series [1] was 0.3 to 1 µM. In series [2], the “EC1.5x for Smn protein expression” value is “** (an EC1.5× between >1 μM and ≤3 μM is indicated by two stars (**))”; the “maximum fold (Fold) increase” value is “*** (a fold increase between >1.35 and ≤1.5 is indicated by three stars (***))”.
`Cc1cn2nc(-c3cc(=O)n4cc(N5CCC(N(CCO)CCO)CC5)cc(C)c4n3)cc2c(C)n1` [Compound 597, 7-{4-[bis(2-hydroxyethyl)amino]piperidin-1-yl}-2-(4,6-dimethylpyrazolo[1,5-a]pyrazin-2-yl)-9-methyl-4H-pyrido[1,2-a]pyrimidin-4-one] came in with a melting point of 218 to 227 °C. In addition, in series [1], the EC (1.5-fold increase) lay within 0.1 to 0.3 µM. In series [2], the “EC1.5x for Smn protein expression” value is “*** (an EC1.5× between >0.3 μM and ≤1 μM is indicated by three stars (***))”; the “maximum fold (Fold) increase” value was “**** (a fold increase between >1.5 and ≤1.65 is indicated by four stars (****))”.
In turn, `CCCN1CC=C(c2ccc3nc(-c4cc5c(C)nc(C)cn5n4)cc(=O)n3c2)CC1` [Compound 352, 2-(4,6-dimethylpyrazolo[1,5-a]pyrazin-2-yl)-7-(1-propyl-1,2,3,6-tetrahydropyridin-4-yl)-4H-pyrido[1,2-a]pyrimidin-4-one] had a melting point of 191 to 193 °C. In addition, in series [1], the EC (1.5-fold increase) was under 0.1 µM. For the same compound, in series [2], the “EC1.5x for Smn protein expression” value is “**** (an EC1.5x≤0.3 μM is indicated by four stars (****))”; the “maximum fold (Fold) increase” value was “**** (a fold increase between >1.5 and ≤1.65 is indicated by four stars (****))”.
For the compound `Cc1cc(C2CCN(C3CCC3)CC2)cn2c(=O)cc(-c3ccc4nn(C)cc4c3)nc12` [Compound 710, 7-(1-cyclobutylpiperidin-4-yl)-9-methyl-2-(2-methyl-2H-indazol-5-yl)-4H-pyrido[1,2-a]pyrimidin-4-one], the melting point lay in the range of 232 to 235 °C. Further, in series [1], the EC (1.5-fold increase) was under 0.1 µM. Further, in series [2], the “EC1.5x for Smn protein expression” value was “**** (an EC1.5x≤0.3 μM is indicated by four stars (****))” and the “maximum fold (Fold) increase” value was “***** (a fold increase >1.65 is indicated by five stars (*****))”.
Take `CCN1CCN(c2ccc3nc(-c4ccc(OC)c(OC)c4)cc(=O)n3c2)CC1` [Compound 9, 2-(3,4-dimethoxyphenyl)-7-(4-ethylpiperazin-1-yl)-4H-pyrido[1,2-a]pyrimidin-4-one]: the melting point was in the range of 159 to 162 °C. In addition, the EC (1.5-fold increase) in series [1] was in the range of 1 to 3 µM. For the same compound, the “maximum fold (Fold) increase” value in series [2] is “*** (a fold increase between >1.35 and ≤1.5 is indicated by three stars (***))”.
Regarding `O=c1cc(-c2ccc(C(F)(F)F)cc2)nc2ccc(N3CCNCC3)cn12` [Compound 44, 7-(piperazin-1-yl)-2-[4-(trifluoromethyl)phenyl]-4H-pyrido[1,2-a]pyrimidin-4-one], the melting point was 285 °C (dec.). The EC (1.5-fold increase) in series [1] is 1 to 3 µM. Moreover, the “maximum fold (Fold) increase” value in series [2] was “* (A maximum fold increase of ≤1.2 is indicated by one star (*))”.

Broadly, the melting point is the temperature, or range, at which the solid turns liquid.
